Results: patent US20100210649A1, “PYRIDAZINONES AND FURAN-CONTAINING COMPOUNDS” (Sloan-Kettering Institute for Cancer Research, priority 2006, published 2010)
Like-named read-outs stand apart in the source and are kept apart here.

What was measured:
Format in all cases: cell-based, human
[1] = test system: H2030; test: Non Small Cell Lung Cancer proliferation assay (Alamar Blue reduction), H2030; settings: primary screening, 10 μM compound in 1% DMSO (v/v); for inhibition at 10 µM: Homo sapiens, NCI-H2030
Experimental: (§1) These cells have a doubling time of 1-2 days. All cell types are adherent and grow in colonies. The cells should be kept at a density between 50,000 cells/mL -500,000 cells/mL to provide for optimum growth and adequate nutrition. The cell line should be maintained at 37° C. in a humidified atmosphere with 5% CO2 in a sterile cell culture incubator.
(§2) Non Small Cell Lung Cancer Proliferation Assay.
(§3) High Controls for this assay are made by treating Non Small Cell Lung Cancer cells with 5 ul of 10% DMSO. [Final concentration in this assay is 1% DMSO].
(§4) Important Note: All compounds for testing in this assay should be done at the final concentration of 1% DMSO.
(§5) After addition, the cells are placed in cell culture incubator at 37° C. for 48 hours for complete treatment.
(§6) After drug treatment, cytotoxicity is measured by Alamar Blue reduction.
(§7) The cells are incubated for 48 hours at 37° C. to complete the Alamar Blue reduction.
(§8) The final step in the assay is to measure the amount of Alamar Blue reduction. […] The Alamar Blue fluorescence is measured at an excitation of 530 nm and emission of 590 nm.
(§9) For the NSCLC project, the cell based assay was screened against a small molecule library of approximately 200,000 compounds. The compound library is stored in our automated robotic freezer (Biophile) at −20° C. in 100% DMSO. Compound freeze and thaw cycles are kept to a minimum. […] This assay was performed on a fully automated linear track robotic platform (CRS F3 Robot System, Thermo Electron Corp., Ontario, Canada) utilizing several integrated peripherals for plate handling, liquid dispensing, and readout detection. […] The microplates are then placed at 37° C. for 48 hours to complete treatment of cells with compounds. Next, 5 ul of alamar blue was added using a liquid dispenser (Flexprop Precision Dispenser, Perkin Elmer, Mass., USA) and incubated for 48 hours at 37° C. The alamar blue prompt fluorescence was measured on Victor V (Victor^3 V, Perkin Elmer, Mass., USA) and output data files were loaded into ORIS (Oncology Research Informatics System, MSKCC, NY, USA), a screening data acquisition and analysis platform.
(§10) The dose response studies were done with the following standard procedure. First, the cells were counted and dispensed at 250 cells/well into 384-well microplates with compound. The cells were incubated for 48 hours at 37 C to complete treatment, and then alamar blue was added for an additional 48 hours. Finally, alamar blue reduction was measured and the data was loaded into ORIS, our data screening acquisition platform.

[2] = test system: H3255; test: Non Small Cell Lung Cancer proliferation assay (Alamar Blue reduction), H3255; settings: primary screening, 10 μM compound in 1% DMSO (v/v); for inhibition at 10 µM: Homo sapiens, NCI-H3255
Experimental: as §1, §2, §3, §4, §5, §6, §7, §8, §9, §10

[3] = test system: H1975; test: Non Small Cell Lung Cancer proliferation assay (Alamar Blue reduction), H1975; settings: primary screening, 10 μM compound in 1% DMSO (v/v); for inhibition at 10 µM: Homo sapiens, NCI-H1975
Experimental: as §1, §2, §3, §4, §5, §6, §7, §8, §9, §10

[4] = test system: H1650; test: Non Small Cell Lung Cancer proliferation assay (Alamar Blue reduction), H1650; settings: primary screening, 10 μM compound in 1% DMSO (v/v); for inhibition at 10 µM: Homo sapiens, NCI-H1650
Experimental: as §1, §2, §3, §4, §5, §6, §7, §8, §9, §10

[5] = H2030, read-out: PRIMARY HTS [%] H2030 (percentage inhibition)
[6] = H3255, read-out: PRIMARY HTS [%] H3255 (percentage inhibition)
[7] = H1975, read-out: PRIMARY HTS [%] H1975 (percentage inhibition)
[8] = H1650, read-out: PRIMARY HTS [%] H1650 (percentage inhibition)
[9] = read-out: percentage inhibition H2030
[10] = read-out: percentage inhibition H3255
[11] = read-out: percentage inhibition H1975
[12] = read-out: percentage inhibition H1650

Q: How did the inhibition at 10 µM [1, 5] turn out when O=C(Nc1ccc(NC(=O)c2ccco2)cc1)c1ccc(-c2ccccc2)cc1 [compound 76739] was run?
A: 3%

Q: What about the inhibition at 10 µM [2, 6] of the same compound?
A: 5%

Q: And the inhibition at 10 µM [3, 7]?
A: -9%

Q: And the inhibition at 10 µM [4, 8]?
A: 13%

Q: With O=c1ccc(O)nn1-c1ccccc1 [compound 189286] as the compound, how does the inhibition at 10 µM [1, 9] read?
A: 5%

Q: What about the inhibition at 10 µM [2, 10] of the same compound?
A: -15%

Q: And the inhibition at 10 µM [3, 11]?
A: 9%

Q: What about the inhibition at 10 µM [4, 12] of the same compound?
A: 0%

Q: How did the “percentage inhibition H2030” value [1] turn out when N#Cc1ccccc1-n1nc(C(=O)c2cccs2)cc(-c2nc3ccccc3[nH]2)c1=N [compound 186926] was run?
A: 2%

Q: What about the “percentage inhibition H3255” value [2] of the same compound?
A: 52%

Q: And the “percentage inhibition H1975” value [3]?
A: 81%

Q: And the “percentage inhibition H1650” value [4]?
A: 27%

Q: What does the source list for O=c1c(Sc2ccc(Cl)cc2)cc(Cl)nn1-c1ccccc1 [compound 177261]?
A: inhibition at 10 µM [1, 9]: -8%; inhibition at 10 µM [2, 10]: 8%; inhibition at 10 µM [3, 11]: 16%; inhibition at 10 µM [4, 12]: 14%

Q: What does the source list for Cc1cc(N(C)C)c(=O)n(-c2ccccc2)n1 [compound 189015]?
A: inhibition at 10 µM [1, 9]: -4%; inhibition at 10 µM [2, 10]: 32%; inhibition at 10 µM [3, 11]: 29%; inhibition at 10 µM [4, 12]: 21%

Q: For Cc1c(C(=O)NN)nn(-c2ccccc2)c(=O)c1C#N [compound 194841], which inhibition at 10 µM [1, 9] is on record?
A: -9%

Q: What about the inhibition at 10 µM [2, 10] of the same compound?
A: -35%

Q: What about the inhibition at 10 µM [3, 11] of the same compound?
A: -15%

Q: What about the inhibition at 10 µM [4, 12] of the same compound?
A: -1%

Q: Which inhibition at 10 µM [1, 9] does the source give for CSc1c(SCc2ccccc2)cnn(-c2ccccc2)c1=O [compound 182831] here?
A: -12%

Q: And the inhibition at 10 µM [2, 10]?
A: -18%

Q: And the inhibition at 10 µM [3, 11]?
A: 5%

Q: What about the inhibition at 10 µM [4, 12] of the same compound?
A: -4%

Q: For N=c1c(-c2nc3ccccc3[nH]2)cc(C(=O)c2cccs2)nn1-c1ccc(Cl)cc1 [compound 186017], which inhibition at 10 µM [1, 9] is on record?
A: -4%

Q: And the inhibition at 10 µM [2, 10]?
A: -13%

Q: And the inhibition at 10 µM [3, 11]?
A: -6%

Q: What about the inhibition at 10 µM [4, 12] of the same compound?
A: -12%

Q: How did the inhibition at 10 µM [1, 9] turn out when CCCOc1cnn(-c2ccccc2)c(=O)c1Cl [compound 179389] was run?
A: 8%

Q: And the inhibition at 10 µM [2, 10]?
A: 28%

Q: And the inhibition at 10 µM [3, 11]?
A: 1%

Q: What about the inhibition at 10 µM [4, 12] of the same compound?
A: -3%

Q: How did the inhibition at 10 µM [1, 9] turn out when Cc1ccc(C)c(Sc2cnn(-c3ccccc3)c(=O)c2Cl)c1 [compound 183339] was run?
A: -12%

Q: And the inhibition at 10 µM [2, 10]?
A: -30%

Q: And the inhibition at 10 µM [3, 11]?
A: 8%

Q: And the inhibition at 10 µM [4, 12]?
A: 15%

Q: Which results are given for Cc1cccc(N2CCN(Cc3ccc([N+](=O)[O-])o3)CC2)c1C [compound 101070]?
A: inhibition at 10 µM [1, 5]: 5%; inhibition at 10 µM [2, 6]: 1%; inhibition at 10 µM [3, 7]: -18%; inhibition at 10 µM [4, 8]: 2%

Q: Which inhibition at 10 µM [1, 9] does the source give for O=c1c(SCc2ccccc2)c(N2CCOCC2)cnn1-c1ccccc1 [compound 224770] here?
A: -8%

Q: What about the inhibition at 10 µM [2, 10] of the same compound?
A: 24%

Q: What about the inhibition at 10 µM [3, 11] of the same compound?
A: -8%

Q: And the inhibition at 10 µM [4, 12]?
A: 65%

Q: Which inhibition at 10 µM [1, 9] does the source give for CCc1c(C(=O)OC)nn(-c2ccc(C)cc2)c(=O)c1C#N [compound 193326] here?
A: -9%

Q: What about the inhibition at 10 µM [2, 10] of the same compound?
A: -49%

Q: What about the inhibition at 10 µM [3, 11] of the same compound?
A: -1%

Q: And the inhibition at 10 µM [4, 12]?
A: -2%

Q: What does the source list for COc1cnn(-c2cccc(C)c2)c(=O)c1Cl [compound 104325]?
A: inhibition at 10 µM [1, 9]: 2%; inhibition at 10 µM [2, 10]: 4%; inhibition at 10 µM [3, 11]: -12%; inhibition at 10 µM [4, 12]: -31%

Q: Which results are given for O=[N+]([O-])c1ccc(CN2CCN(c3ccccc3)CC2)o1 [compound 100483]?
A: inhibition at 10 µM [1, 5]: -1%; inhibition at 10 µM [2, 6]: 1%; inhibition at 10 µM [3, 7]: -8%; inhibition at 10 µM [4, 8]: -1%

Q: Which results are given for Cc1ccccc1-n1ncc(SCc2ccccc2)c(Cl)c1=O [compound 224765]?
A: inhibition at 10 µM [1, 9]: -15%; inhibition at 10 µM [2, 10]: -12%; inhibition at 10 µM [3, 11]: 1%; inhibition at 10 µM [4, 12]: 7%

Q: For O=C(c1ccc([N+](=O)[O-])o1)N1CCc2ccccc21 [compound 100403], which inhibition at 10 µM [1, 5] is on record?
A: 3%

Q: What about the inhibition at 10 µM [2, 6] of the same compound?
A: 2%

Q: And the inhibition at 10 µM [3, 7]?
A: -13%

Q: And the inhibition at 10 µM [4, 8]?
A: -13%
